This note sets out measurements from patent US20090264401A1, “SUBSTITUTED PYRIMIDIN-5-CARBOXAMIDES 281” (AstraZeneca AB, priority 2008, published 2009).

This experiment deals with T1, human 11βHSD1 enzyme (Homo sapiens, UniProt P28845).
T1 construct: baculovirus expressed N terminal 6-His tagged full length human 11βHSD1 enzyme; 6-His (N); made in house
Nature of the experiment: 11βHSD1 cortisone to cortisol conversion, competitive HTRF assay. The format is biochemical. Particulars: for inhibition at 30 µM: human 11-βHSD, test concentration of 30 μM of compound. In outline:
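Enzyme was baculovirus-expressed, N-terminal 6-His-tagged full-length human 11βHSD1, purified on a copper chelate column. Compounds were added in buffer containing 1% DMSO at 10-fold final concentration.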
On the technique in general: Time-resolved FRET reads energy transfer from a long-lived donor to a nearby acceptor.

Each structure is given as a SMILES string.

T1 sequence (P28845 whole entry): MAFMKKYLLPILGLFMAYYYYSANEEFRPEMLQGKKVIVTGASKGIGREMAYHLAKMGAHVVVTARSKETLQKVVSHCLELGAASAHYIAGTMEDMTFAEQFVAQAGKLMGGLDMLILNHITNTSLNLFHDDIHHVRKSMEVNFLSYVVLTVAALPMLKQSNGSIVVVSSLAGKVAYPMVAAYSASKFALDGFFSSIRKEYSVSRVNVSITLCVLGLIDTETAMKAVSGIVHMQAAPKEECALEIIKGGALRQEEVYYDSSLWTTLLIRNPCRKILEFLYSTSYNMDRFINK

A word on the inhibition: it is the change of the read-out against control, counted positive when it falls. Consider `CNc1ncc(C(=O)N[C@H]2C3CC4CC2C[C@@](O)(C4)C3)c([C@@H]2CCCO2)n1` [Example 178, N-[(2r,5s)-5-hydroxyadamantan-2-yl]-2-methylamino-4-[(2S)-oxolan-2-yl]pyrimidine-5-carboxamide], for which the inhibition at 30 µM amounted to 95.3%.

On to `Cc1ncc(C(=O)N[C@H]2C3CC4CC2C[C@@](O)(C4)C3)c(-c2ccccc2Cl)n1` [Example 189, 4-(2-Chlorophenyl)-N-[(2r,5s)-5-hydroxyadamantan-2-yl]-2-methylpyrimidine-5-carboxamide], for which the inhibition at 30 µM came to 95.5%.

`O=C(N[C@H]1C2CC3CC1C[C@@](O)(C3)C2)c1cnc(NC2CC2)nc1C1CCCO1` (some centres unmarked) [Example 160, 2-(cyclopropylamino)-N-[(2r,5s)-5-hydroxyadamantan-2-yl]-4-(oxolan-2-yl)pyrimidine-5-carboxamide]: the inhibition at 30 µM was found to be 104%.

Take `O=C(N[C@H]1C2CC3CC1C[C@@](O)(C3)C2)c1cnc(N2CC(F)(F)C2)nc1C1CCCC1` [Example 146, 4-cyclopentyl-2-(3,3-difluoroazetidin-1-yl)-N-[(2r,5s)-5-hydroxyadamantan-2-yl]pyrimidine-5-carboxamide]: the inhibition at 30 µM was found to be 93.4%.

On to `O=C(N[C@H]1C2CC3CC1C[C@@](O)(C3)C2)c1cnc(NC2CCCC2)nc1C1CCC1` [Example 102, 4-cyclobutyl-2-(cyclopentylamino)-N-[(2r,5s)-5-hydroxyadamantan-2-yl]pyrimidine-5-carboxamide], for which the inhibition at 30 µM is 93.8%.

With `COc1nc(NC2CCC2)ncc1C(=O)N[C@H]1C2CC3CC1C[C@@](O)(C3)C2` [Example 207, 2-(cyclobutylamino)-N-[(2r,5s)-5-hydroxytricyclo[3.3.1.13,7]dec-2-yl]-4-methoxypyrimidine-5-carboxamide], the inhibition at 30 µM amounted to 93%.

For orientation: IC50 means the midpoint of a concentration-inhibition curve. For `CCCSc1nc(N2CCC[C@@H](CC(=O)O)C2)ncc1C(=O)NC1CCCCC1` [Example 20, {(3S)-1-[5-(Cyclohexylcarbamoyl)-4-(propylthio)pyrimidin-2-yl]piperidin-3-yl}acetic acid], the inhibition at 30 µM came out at 97.6%. In addition, the IC50 (recombinant N terminal 6-His tagged full length human 11βHSD1, cortisone 160 nM, 25 minutes at 37° C.) came to 2 nM.

As to `O=C(N[C@H]1C2CC3CC1C[C@@](O)(C3)C2)c1cnc(N2CCOC(CO)C2)nc1C1CCC1` (some centres unmarked) [Example 93, 4-cyclobutyl-N-[(2r,5s)-5-hydroxyadamantan-2-yl]-2-[2-(hydroxymethyl)morpholin-4-yl]pyrimidine-5-carboxamide], the inhibition at 30 µM came to 93.1%.

In the case of `CC(C)Oc1ncc(C(=O)N[C@H]2C3CC4CC2C[C@@](O)(C4)C3)c([C@H]2CCCO2)n1` [Example 176], the inhibition at 30 µM is 97.9%.

As for `O=C(N[C@H]1C2CC3CC1C[C@@](O)(C3)C2)c1cnc(OC2CCC2)nc1C1CC1` [Example 75, 2-(Cyclobutyloxy)-4-cyclopropyl-N-[(2r,5 s)-5-hydroxyadamantan-2-yl]pyrimidine-5-carboxamide], the inhibition at 30 µM amounted to 98.6%.

For the compound `O=C(N[C@H]1C2CC3CC1C[C@@](O)(C3)C2)c1cnc(N2CC3CC2CS3(=O)=O)nc1C1CC1` [Example 48, 4-Cyclopropyl-2-(3,3-dioxo-3λ6-thia-6-azabicyclo[2.2.1]heptan-6-yl)-N-[(2r,5 s)-5-hydroxyadamantan-2-yl]pyrimidine-5-carboxamide], the inhibition at 30 µM is 100%.

As to `Nc1ncc(C(=O)N[C@H]2C3CC4CC2C[C@@](O)(C4)C3)c(C2CCCC2)n1` [Example 135, 2-amino-4-cyclopentyl-N-[(2r,5s)-5-hydroxyadamantan-2-yl]pyrimidine-5-carboxamide], the inhibition at 30 µM is 100%.

For `CNc1ncc(C(=O)N[C@H]2C3CC4CC2C[C@@](O)(C4)C3)c(C2CCCC2)n1` [Example 118, 4-cyclopentyl-N-[(2r,5s)-5-hydroxyadamantan-2-yl]-2-methylaminopyrimidine-5-carboxamide], the inhibition at 30 µM worked out at 93.7%.

For the compound `O=C(N[C@H]1C2CC3CC1C[C@@](O)(C3)C2)c1cnc(N2C[C@@H]3C[C@H]2CO3)nc1C1CCCC1` [Example 120, 4-cyclopentyl-N-[(2r,5s)-5-hydroxyadamantan-2-yl]-2-[(1S,4S)-2-oxa-5-azabicyclo[2.2.1]heptan-5-yl]pyrimidine-5-carboxamide], the inhibition at 30 µM was 101%.

As to `O=C(N[C@H]1C2CC3CC1C[C@@](O)(C3)C2)c1cnc(N2CC(F)(F)C2)nc1N1CC(F)(F)C1` [Example 200, 2,4-bis(3,3-difluoroazetidin-1-yl)-N-[(2r,5s)-5-hydroxyadamantan-2-yl]pyrimidine-5-carboxamide], the inhibition at 30 µM was determined as 52.8%.

As to `COCc1nc(N2C[C@@H](C)O[C@@H](C)C2)ncc1C(=O)N[C@H]1C2CC3CC1C[C@@](O)(C3)C2` [Example 219, 2-[(2S,6R)-2,6-Dimethylmorpholin-4-yl]-N-[(2r,5s)-5-hydroxyadamantan-2-yl]-4-(methoxymethyl)pyrimidine-5-carboxamide], the inhibition at 30 µM amounted to 98.6%.

In the case of `COCCN1CCN(c2ncc(C(=O)N[C@H]3C4CC5CC3C[C@@](O)(C5)C4)c(C3CC3)n2)CC1` [Example 55, 4-cyclopropyl-N-[(2r,5s)-5-hydroxyadamantan-2-yl]-2-[4-(2-methoxyethyl)piperazin-1-yl]pyrimidine-5-carboxamide], the inhibition at 30 µM came to 96.9%.

Take `CC(C)Oc1ncc(C(=O)N[C@H]2C3CC4CC2C[C@@](O)(C4)C3)c(C2CCCC2)n1` [Example 110, 4-cyclopentyl-N-[(2r,5s)-5-hydroxyadamantan-2-yl]-2-propan-2-yloxypyrimidine-5-carboxamide]: the inhibition at 30 µM was determined as 100%.

As for `O=C(N[C@H]1C2CC3CC1C[C@@](O)(C3)C2)c1cnc(N2CCSCC2)nc1C1CCCCC1` [Example 196, 4-Cyclohexyl-N-[(2r,5 s)-5-hydroxyadamantan-2-yl]-2-thiomorpholin-4-ylpyrimidine-5-carboxamide], the inhibition at 30 µM was 99.8%.
